Laboratory results from patent US11679107B2 (Eisai R&D Management Co., Ltd., priority 2018, dated 2023).
Where two headings read alike, the source gives them in different places.

Assays:
[1] = test system: NCI-H1568 cells (high MCL1); test: Cell proliferation and viability, CellTiter-Glo, 72 hours; format: cell-based; conditions: for GI50: geometric mean
Method in brief: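 RPMI-1640/10% FBS (Panc: + insulin, FBS 15%); 11-pt half-log dose, ~10 μM-100 pM, 0.1% DMSO; 37° C, 5% CO2; ATP luminescence read; % inhibition vs T0 and vehicle, −100% cidal to 100% uninhibited growth.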

SF3b complexes = target: T1, SF3b complexes (Homo sapiens, UniProt O75533+Q7RTV0); test: Scintillation proximity assay (SPA) with [3H]-labelled pladienolide probe; format: binding; conditions: SF3B1 (WT); geometric mean; read-out: SPA-ATS GMean IC50 (nM) SF3B1 (WT)
T1 construct: endogenous in cells; host or cells: Nuclear extracts; A HeLa S3 extract preparation is described for the in vitro splicing assay
Method in brief: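 SF3b complexes captured from nuclear extracts on anti-SF3B1 antibody SPA beads; test compounds pre-incubated 30 min before 2.5 nM [3H]-pladienolide probe added, then 30 min incubation. Bound probe read by scintillation; values from non-linear regression of concentration–response curves.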

[2] = test system: Ad2 variant pre-mRNAs spliced in HeLa S3 nuclear extracts; test: In vitro splicing assay (IVS), RT-qPCR of spliced product; format: biochemical; conditions: for IC50: geometric mean; for Ratio Ad2.1/2.2: ratio of IVS IC50 Ad2.1 to Ad2.2
Method in brief: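 Read-out is one-step TaqMan RT-qPCR of spliced Ad2 mRNA with Ftz as reference, normalized to DMSO and fit by non-linear regression. Reactions held HeLa S3 nuclear extract, 2 ng Ad2-derived pre-mRNA and test compound, with 15 min preincubation. Splicing was started with ATP-containing activation buffer and run 90 min at 30 °C.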

[3] = NCI-H1568, read-out: CTGlo-ATS GMean GI50 (nM) 72 h NCIH1568.1, NCIH1568.1 cells, 72 h
[4] = NCIH1568.1 cells, 72 h, −100% cidal, 0% static, 100% maximal growth
[5] = Ad2.1 pre-mRNA substrate, read-out: qPCR-IVS-ATS GMean IC50 (nM) Ad2.1
[6] = Ad2.2 pre-mRNA substrate, read-out: qPCR-IVS-ATS GMean IC50 (nM) Ad2.2
[7] = NCI-H1568, 72 h, read-out: CTGlo-ATS GMean GI50 (nM) 72 h NCIH1568.1, NCIH1568.1 cells, 72 h
[8] = 72 h, NCIH1568.1, -100% = cidal, 0% = static, 100% = uninhibited growth

| Compound | GI50 [1, 3] [nM] | CTGlo-ATS Mean MinResponse % 72 h NCIH1568.1 [1, 4] [%] | IC50 (SF3b complexes) [nM] | IC50 [2, 5] [nM] | IC50 [2, 6] [nM] | GI50 [1, 7] [nM] | CTGlo-ATS Mean MinResponse % 72 h NCIH1568.1 [1, 8] [%] | GI50 ([1]; NCI-H1568, read-out: CTGlo-ATS GMean GI50 (nM) 72 h NCIH1568.1, 72 h, NCIH1568.1) [nM] | Ratio Ad2.1/2.2 [2] | GI50 ([1]; NCI-H1568, 72 h, read-out: CTGlo-ATS GMean GI50 (nM) 72 h NCIH1568.1, 72 h, NCIH1568.1) [nM] |
| --- | --- | --- | --- | --- | --- | --- | --- | --- | --- | --- |
| C/C(=C\c1cc(F)c2nnn([C@H]3CC[C@H](O)CC3)c2c1)[C@H]1OC(=O)C[C@H](O)CC[C@H](C)[C@@H](OC(=O)N2CCN(C)CC2)/C=C/[C@@H]1C [Compound 147] | 1.56 | −91.884 | 7.3 | 9.57 | 7.43 |  |  |  |  |  |
| CCCNC(=O)N1CCC(N(C)c2cc(F)cc(/C=C(\C)[C@H]3OC(=O)C[C@H](O)CC[C@H](C)[C@@H](OC(=O)N4CCN(C)CC4)/C=C/[C@@H]3C)c2)CC1 [Compound 192] |  | −75.900 | 3.85 | 14.1 | 10.3 | 7.49 |  |  |  |  |
| C/C(=C\c1cc(F)cc(N(C)C2CCN(C(=O)c3ccccc3)CC2)c1)[C@H]1OC(=O)C[C@H](O)CC[C@H](C)[C@@H](OC(=O)N2CCN(C)CC2)/C=C/[C@@H]1C [Compound 180] | 14.4 | −86.471 | 42.3 | 29.9 | 24.6 |  |  |  |  |  |
| C/C(=C\c1cc(F)cc(N(C)C2CCN(C(=O)NC(C)C)CC2)c1)[C@H]1OC(=O)C[C@H](O)CC[C@H](C)[C@@H](OC(=O)N2CCN(C)CC2)/C=C/[C@@H]1C [Compound 191] | 6.33 | −83.895 | 3.47 | 11.6 | 7.47 |  |  |  |  |  |
| COCCn1nnc2c(F)cc(/C=C(\C)[C@H]3OC(=O)C[C@H](O)CC[C@H](C)[C@@H](OC(=O)N4CCN(C)CC4)/C=C/[C@@H]3C)cc21 [Compound 159] | 3.45 | −65.047 | 1.84 | 88.3 | 10.2 |  |  |  |  |  |
| C/C(=C\c1cc(F)cc(N2CCN(C(=O)Cn3cccn3)CC2)c1)[C@H]1OC(=O)C[C@H](O)CC[C@H](C)[C@@H](OC(=O)N2CC[C@@H](F)C2)/C=C/[C@@H]1C [Compound 231, [(2S,3S,4E,6R,7S,10R)-2-[(E)-1-[3-fluoro-5-[4-(2-pyrazol-1-ylacetyl)piperazin-1-yl]phenyl]prop-1-en-2-yl]-10-hydroxy-3,7-dimethyl-12-oxo-1-oxacyclododec-4-en-6-yl] (3R)-3-fluoropyrrolidine-1-carboxylate] |  |  | 26 | 513 | 5.28 |  | −59.209 | 22.7 | 97.051 |  |
| C/C(=C\c1cc(F)c2nnn(C3(C)CCOCC3)c2c1)[C@H]1OC(=O)C[C@H](O)CC[C@H](C)[C@@H](OC(=O)N2CCN(C)CC2)/C=C/[C@@H]1C [Compound 156] |  | −87.369 | 3.95 | 8.37 | 7.91 | 1.27 |  |  |  |  |
| C/C(=C\c1cc(F)cc(N2CCN(C(=O)Cn3cccn3)CC2)c1)[C@H]1OC(=O)C[C@H](O)CC[C@H](C)[C@@H](OC(=O)NCc2ccncn2)/C=C/[C@@H]1C [Compound 222, [(2S,3S,4E,6R,7S,10R)-2-[(E)-1-[3-fluoro-5-[4-(2-pyrazol-1-ylacetyl)piperazin-1-yl]phenyl]prop-1-en-2-yl]-10-hydroxy-3,7-dimethyl-12-oxo-1-oxacyclododec-4-en-6-yl] N-(pyrimidin-4-ylmethyl)carbamate] |  |  | 23.6 | 116 | 53.2 |  | −58.410 |  | 2.179 | 69.4 |
| C/C(=C\c1cc(F)cc(N2CCCN(CC3CC3)C2=O)c1)[C@H]1OC(=O)C[C@H](O)CC[C@H](C)[C@@H](OC(=O)N2CCN(C)CC2)/C=C/[C@@H]1C [Compound 80] |  | −69.196 | 1.59 | 6.64 | 8.57 | 2.68 |  |  |  |  |
